Test results: patent US20230278972A1, “SUBSTITUTED HALOALKYL SULFONANILIDE HERBICIDES” (FMC Corporation, priority 2020, published 2023)

How the values were obtained:
Assay type in all cases: in vivo
[1] = system: ragweed (common ragweed, Ambrosia artemisiifolia); assay: Test A1 preemergence, ragweed
Description: (§1) Seeds of plant species selected from, blackgrass (Alopecurus myosuroides), corn (Zea mays), Foxtail, Giant (giant foxtail, Setaria faberi), goosegrass (Eleusine indica), kochia (Bassia scoparia), Oat, Wild (wild oat, Avena fatua), Pigweed, Palmer (palmer amaranth, palmer pigweed, Amaranthus palmeri), ragweed (common ragweed, Ambrosia artemisiifolia), Ryegrass, Italian (Italian ryegrass, Lolium multiflorum), soybean (Glycine max), and wheat (Triticum aestivum) were planted into a blend of loam soil and sand and treated preemergence with a directed soil spray using test chemicals formulated in a non-phytotoxic solvent mixture which included a surfactant. At the same time, plants selected from these crop and weed species and also galium (catchweed bedstraw, Galium aparine) and horseweed (Erigeron canadensis) were planted in pots containing the same blend of loam soil and sand and treated with postemergence applications of test chemicals formulated in the same manner. Plants ranged in height from 2 to 10 cm and were in the one- to two-leaf stage for the postemergence treatment. […] A dash (-) response means no test result.

[2] = system: Foxtail, Giant (giant foxtail, Setaria faberi); assay: Test A1 postemergence, Foxtail, Giant; conditions: for Plant response rating, Foxtail, Giant: Postemergence
Description: as §1

kochia (Bassia scoparia) [3] = assay: Test A1 postemergence, kochia; conditions: for Plant response rating, Kochia: Postemergence
Description: as §1

[4] = system: Pigweed, Palmer (palmer amaranth, palmer pigweed, Amaranthus palmeri); assay: Test A1 postemergence, Pigweed, Palmer; conditions: for Plant response rating, Pigweed, Palmer: Postemergence
Description: as §1

[5] = system: goosegrass (Eleusine indica); assay: Test A1 postemergence, goosegrass; conditions: for Plant response rating, Goosegrass: Postemergence
Description: as §1

soybean (Glycine max) [6] = assay: Test A1 preemergence, soybean
Description: as §1

kochia (Bassia scoparia) [7] = assay: Test A1 preemergence, kochia
Description: as §1

[8] = system: ragweed (common ragweed, Ambrosia artemisiifolia); assay: Test A1 postemergence, ragweed; conditions: for Plant response rating, Ragweed: Postemergence
Description: as §1

[9] = system: wheat (Triticum aestivum); assay: Test A1 postemergence, wheat; conditions: for Plant response rating, Wheat: Postemergence
Description: as §1

[10] = system: blackgrass (Alopecurus myosuroides); assay: Test A1 preemergence, blackgrass
Description: as §1

rice (Oryza sativa) = assay: Test B1 flooded paddy test, rice; conditions: 250 g ai/ha, Flood, applied to paddy water, 2-leaf stage, visually evaluated after 10 to 14 days
Description: (§2) A dash (-) response means no test result.

[11] = system: barnyardgrass (Echinochloa crus-galli); assay: Test B1 flooded paddy test, barnyardgrass; conditions: 250 g ai/ha, Flood, applied to paddy water, 2-leaf stage, visually evaluated after 10 to 14 days
Description: as §2

[12] = system: goosegrass (Eleusine indica); assay: Test A1 preemergence, goosegrass
Description: as §1

[13] = system: Oat, Wild (wild oat, Avena fatua); assay: Test A1 postemergence, Oat, Wild; conditions: for Plant response rating, Oat, Wild: Postemergence
Description: as §1

[14] = system: galium (catchweed bedstraw, Galium aparine); assay: Test A1 postemergence, galium; conditions: for Plant response rating, Galium: Postemergence
Description: as §1

corn (Zea mays) [15] = assay: Test A1 preemergence, corn
Description: as §1

[16] = system: wheat (Triticum aestivum); assay: Test A1 preemergence, wheat
Description: as §1

soybean (Glycine max) [17] = assay: Test A1 postemergence, soybean; conditions: for Plant response rating, Soybean: Postemergence
Description: as §1

corn (Zea mays) [18] = assay: Test A1 postemergence, corn; conditions: Postemergence
Description: as §1

[19] = system: Foxtail, Giant (giant foxtail, Setaria faberi); assay: Test A1 preemergence, Foxtail, Giant
Description: as §1

[20] = system: blackgrass (Alopecurus myosuroides); assay: Test A1 postemergence, blackgrass; conditions: Postemergence, 0 to 100 scale (0 no effect, 100 complete control)
Description: as §1

[21] = system: Ryegrass, Italian (Italian ryegrass, Lolium multiflorum); assay: Test A1 preemergence, Ryegrass, Italian
Description: as §1

[22] = system: Oat, Wild (wild oat, Avena fatua); assay: Test A1 preemergence, Oat, Wild
Description: as §1

[23] = system: Pigweed, Palmer (palmer amaranth, palmer pigweed, Amaranthus palmeri); assay: Test A1 preemergence, Pigweed, Palmer
Description: as §1

[24] = system: Ryegrass, Italian (Italian ryegrass, Lolium multiflorum); assay: Test A1 postemergence, Ryegrass, Italian; conditions: for Plant response rating, Ryegrass, Italian: Postemergence
Description: as §1

[25] = system: ducksalad (Heteranthera limosa); assay: Test B1 flooded paddy test, ducksalad; conditions: 250 g ai/ha, Flood, applied to paddy water, 2-leaf stage, visually evaluated after 10 to 14 days
Description: as §2

[26] = 31 g ai/ha, 0 to 100 scale (0 no effect, 100 complete control)
[27] = 125 g ai/ha, 0 to 100 scale, 0 no effect, 100 complete control
[28] = 31 g ai/ha, postemergence, 0 to 100 scale (0 no effect, 100 complete control)
[29] = 31 g ai/ha, 0 to 100 scale (0 no effect, 100 complete control), 10 days

Cc1c(C(=O)N2CCC(C)CC2)cc(N(COC(=O)C(C)(C)C)S(=O)(=O)C(F)(F)F)c(C)c1C [Compound 369]
Plant response rating, Ragweed [1, 26]: 0
Plant response rating, Ragweed [1, 27]: 90
Foxtail, Giant plant response rating [2, 28]: 20
Plant response rating, Foxtail, Giant ([2]; 125 g ai/ha, 0 to 100 scale): 90
Kochia plant response rating (kochia (Bassia scoparia) [3]; [28]): 0
Plant response rating, Kochia (kochia (Bassia scoparia) [3]; 125 g ai/ha, 0 to 100 scale): 50
Pigweed, Palmer plant response rating [4, 28]: 0
Plant response rating, Pigweed, Palmer ([4]; 125 g ai/ha, 0 to 100 scale): 40
Goosegrass plant response rating [5, 28]: 0
Plant response rating, Goosegrass ([5]; 125 g ai/ha, 0 to 100 scale): 0
Plant response rating, Soybean (soybean (Glycine max) [6]; [26]): 0
Plant response rating, Soybean (soybean (Glycine max) [6]; [27]): 30
Plant response rating, Kochia (kochia (Bassia scoparia) [7]; [26]): 0
Plant response rating, Kochia (kochia (Bassia scoparia) [7]; [27]): 0
Ragweed plant response rating [8, 28]: 20
Plant response rating, Ragweed ([8]; 125 g ai/ha, 0 to 100 scale): 80
Wheat plant response rating [9, 28]: 0
Plant response rating, Wheat ([9]; 125 g ai/ha, 0 to 100 scale): 20
Plant response rating, Blackgrass [10, 26]: 0
Plant response rating, Blackgrass [10, 27]: 0
Plant response rating, Rice (0 to 100 scale, 0 is no effect, 100 is complete control) (rice (Oryza sativa)): 20
Plant response rating, Barnyardgrass (0 to 100 scale, 0 is no effect, 100 is complete control) [11]: 90
Plant response rating, Goosegrass [12, 26]: 0
Plant response rating, Goosegrass [12, 27]: 50
Oat, Wild plant response rating [13, 28]: 0
Plant response rating, Oat, Wild ([13]; 125 g ai/ha, 0 to 100 scale): 0
Galium plant response rating [14, 28]: 60
Plant response rating, Galium ([14]; 125 g ai/ha, 0 to 100 scale): 80
Plant response rating, Corn (corn (Zea mays) [15]; [26]): 0
Plant response rating, Corn (corn (Zea mays) [15]; [27]): 0
Plant response rating, Wheat [16, 26]: 0
Plant response rating, Wheat [16, 27]: 0
Soybean plant response rating (soybean (Glycine max) [17]; [28]): 20
Plant response rating, Soybean (soybean (Glycine max) [17]; 125 g ai/ha, 0 to 100 scale): 90
Plant response rating, Corn (corn (Zea mays) [18]; [29]): 0
Plant response rating, Corn (corn (Zea mays) [18]; 125 g ai/ha, 0 to 100 scale): 50
Plant response rating, Foxtail, Giant [19, 26]: 0
Plant response rating, Foxtail, Giant [19, 27]: 20
Plant response rating, Blackgrass ([20]; 31 g ai/ha, 10 days): 0
Plant response rating, Blackgrass ([20]; 125 g ai/ha): 0
Plant response rating, Ryegrass, Italian [21, 26]: 40
Plant response rating, Ryegrass, Italian [21, 27]: 40
Plant response rating, Oat, Wild [22, 26]: 0
Plant response rating, Oat, Wild [22, 27]: 20
Plant response rating, Pigweed, Palmer [23, 26]: 0
Plant response rating, Pigweed, Palmer [23, 27]: 50
Ryegrass, Italian plant response rating [24, 28]: 0
Plant response rating, Ryegrass, Italian ([24]; 125 g ai/ha, 0 to 100 scale): 20
Plant response rating, Ducksalad (0 to 100 scale, 0 is no effect, 100 is complete control) [25]: 65

COCC1CC(c2cc(N(COC(=O)C(C)(C)C)S(=O)(=O)C(F)(F)F)c(C)cc2C)=NO1 (centres unmarked) [Compound 338]
Plant response rating, Ragweed [1, 26]: 0
Plant response rating, Ragweed [1, 27]: 40
Plant response rating, Foxtail, Giant [2, 29]: 10
Plant response rating, Foxtail, Giant ([2]; 125 g ai/ha, 0 to 100 scale): 80
Plant response rating, Kochia (kochia (Bassia scoparia) [3]; [29]): 10
Plant response rating, Kochia (kochia (Bassia scoparia) [3]; 125 g ai/ha, 0 to 100 scale): 60
Plant response rating, Pigweed, Palmer [4, 29]: 0
Plant response rating, Pigweed, Palmer ([4]; 125 g ai/ha, 0 to 100 scale): 30
Plant response rating, Goosegrass [5, 29]: 0
Plant response rating, Goosegrass ([5]; 125 g ai/ha, 0 to 100 scale): 70
Plant response rating, Soybean (soybean (Glycine max) [6]; [26]): 0
Plant response rating, Soybean (soybean (Glycine max) [6]; [27]): 20
Plant response rating, Kochia (kochia (Bassia scoparia) [7]; [26]): 0
Plant response rating, Kochia (kochia (Bassia scoparia) [7]; [27]): 10
Plant response rating, Ragweed [8, 29]: 30
Plant response rating, Ragweed ([8]; 125 g ai/ha, 0 to 100 scale): 70
Plant response rating, Wheat [9, 29]: 20
Plant response rating, Wheat ([9]; 125 g ai/ha, 0 to 100 scale): 70
Plant response rating, Blackgrass [10, 26]: 0
Plant response rating, Blackgrass [10, 27]: 0
Plant response rating, Rice (0 to 100 scale, 0 is no effect, 100 is complete control) (rice (Oryza sativa)): 20
Plant response rating, Barnyardgrass (0 to 100 scale, 0 is no effect, 100 is complete control) [11]: 95
Plant response rating, Goosegrass [12, 26]: 40
Plant response rating, Goosegrass [12, 27]: 100
Plant response rating, Oat, Wild [13, 29]: 0
Plant response rating, Oat, Wild ([13]; 125 g ai/ha, 0 to 100 scale): 10
Plant response rating, Galium [14, 29]: 50
Plant response rating, Galium ([14]; 125 g ai/ha, 0 to 100 scale): 50
Plant response rating, Corn (corn (Zea mays) [15]; [26]): 10
Plant response rating, Corn (corn (Zea mays) [15]; [27]): 50
Plant response rating, Wheat [16, 26]: 0
Plant response rating, Wheat [16, 27]: 80
Plant response rating, Soybean (soybean (Glycine max) [17]; [29]): 10
Plant response rating, Soybean (soybean (Glycine max) [17]; 125 g ai/ha, 0 to 100 scale): 40
Plant response rating, Corn (corn (Zea mays) [18]; [29]): 10
Plant response rating, Corn (corn (Zea mays) [18]; 125 g ai/ha, 0 to 100 scale): 30
Plant response rating, Foxtail, Giant [19, 26]: 10
Plant response rating, Foxtail, Giant [19, 27]: 90
Plant response rating, Blackgrass ([20]; 31 g ai/ha, 10 days): 0
Plant response rating, Blackgrass ([20]; 125 g ai/ha): 0
Plant response rating, Ryegrass, Italian [21, 26]: 30
Plant response rating, Ryegrass, Italian [21, 27]: 30
Plant response rating, Oat, Wild [22, 26]: 0
Plant response rating, Oat, Wild [22, 27]: 0
Plant response rating, Pigweed, Palmer [23, 26]: 0
Plant response rating, Pigweed, Palmer [23, 27]: 40
Plant response rating, Ryegrass, Italian [24, 29]: 0
Plant response rating, Ryegrass, Italian ([24]; 125 g ai/ha, 0 to 100 scale): 10
Plant response rating, Ducksalad (0 to 100 scale, 0 is no effect, 100 is complete control) [25]: 40
